Like-named read-outs stand apart in the source and are kept apart here.

For assay [1], the system named is phosphorylated AKT Ser473 (pAKT S473), mTORC2 activity, PC3 cells. In words: mTOR target engagement assay, immunofluorescent cell-based, pAKT S473 readout (mTORC2 activity). Summed up: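 After blocking, cells were stained overnight at 4 °C with anti-pAKT S473 antibody, then a fluorescent secondary; inhibition was read as reduced fluorescence intensity.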
Assay [2] deals with phosphorylated 4E-BP1 Thr37/46 (p4E-BP1 Thr37/46), mTORC1 activity, PC3 cells. In words: mTOR target engagement assay, immunofluorescent cell-based, p4E-BP1 Thr37/46 readout (mTORC1 activity). Conditions: read-out: p4E-BP1 Thr37/46 IC50. Summed up: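 Seed PC3 cells overnight; treat with compound dilutions for ninety minutes at 37° C; fix with glyoxal and block; stain with anti-p4E-BP1 Thr37/46 overnight at 4° C, then fluorescent secondary; read fluorescence and fit IC50 against DMSO-only controls.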

Where [3] appears, read: Homo sapiens, PC-3, PC3 cells, compound treatment ninety minutes at 37° C.
[4] abbreviates: Homo sapiens, PC-3, Table 3-1, PC3 cells.
Where [5] appears, read: Homo sapiens, PC-3, Table 7-8, PC3 cells.

With `CC(=O)c1c([C@@H]2C[C@H]3CC[C@@H](C2)N3C(=O)c2cn[nH]c2N)nc2c(-c3ccc(-c4ccccc4)nc3)cnn2c1N` [Compound 1.1.141, 1-(7-amino-5-((1R,3s,5S)-8-(5-amino-1H-pyrazole-4-carbonyl)-8-azabicyclo[3.2.1]octan-3-yl)-3-(6-phenylpyridin-3-yl)pyrazolo[1,5-a]pyrimidin-6-yl)ethanone], the IC50 in assay [1] (setting [3]) and in assay [2] (setting [3]) was 1 to 100 nM throughout.
Consider `CS(=O)(=O)c1c([C@@H]2C[C@H]3CC[C@@H](C2)N3C(=O)c2cc3cnccc3[nH]2)nc2c(-c3ccc(-c4ccccc4)nc3)cnn2c1N` [Compound 3.76, ((1R,3s,5S)-3-(7-amino-6-(methylsulfonyl)-3-(6-phenylpyridin-3-yl)pyrazolo[1,5-a]pyrimidin-5-yl)-8-azabicyclo[3.2.1]octan-8-yl)(1H-pyrrolo[3,2-c]pyridin-2-yl)methanone], for which the IC50 in assay [1] (setting [4]) and in assay [2] (setting [4]) was 1 to 100 nM in each case.
As to `Nc1cc([C@@H]2C[C@H]3CC[C@@H](C2)N3C(=O)c2nnc[nH]2)nc2c(-c3ccc(-c4ccc(C(F)(F)F)cc4F)nc3)cnn12` [Compound 2.17, ((1R,3s,5S)-3-(7-amino-3-(6-(2-fluoro-4-(trifluoromethyl)phenyl)pyridin-3-yl)pyrazolo[1,5-a]pyrimidin-5-yl)-8-azabicyclo[3.2.1]octan-8-yl)(4H-1,2,4-triazol-3-yl)methanone], the IC50 in assay [1] (setting [3]) and in assay [2] (setting [3]) was 1000 to 10000 nM in each case.
With `N#C/N=C(\N)N1[C@@H]2CC[C@H]1C[C@H](c1cc(N)n3ncc(-c4ccc(-c5ccccc5)nc4)c3n1)C2` [Compound 8.86], the IC50 in assay [1] (Homo sapiens, PC-3, PC3 cells) lay within 1000 to 10000 nM; in assay [2] (Homo sapiens, PC-3, PC3 cells), 1000 to 10000 nM.
Take `Cc1nc(-c2ccc(-c3cnn4c(N)c(S(C)(=O)=O)c([C@@H]5C[C@H]6CC[C@@H](C5)N6C(=O)c5nnc[nH]5)nc34)cn2)sc1C` [Compound 3.196, ((1R,3s,5S)-3-(7-amino-3-(6-(4,5-dimethylthiazol-2-yl)pyridin-3-yl)-6-(methylsulfonyl)pyrazolo[1,5-a]pyrimidin-5-yl)-8-azabicyclo[3.2.1]octan-8-yl)(4H-1,2,4-triazol-3-yl)methanone]: the IC50 in assay [1] (setting [4]) and in assay [2] (setting [4]) was 100 to 1000 nM throughout.
As to `CCNC(=O)N1[C@@H]2CC[C@H]1C[C@H](c1nc3c(-c4ccc(-c5ccccc5F)nc4)cnn3c(N)c1S(C)(=O)=O)C2` [Compound 3.130, (1R,3s,5S)-3-(7-amino-3-(6-(2-fluorophenyl)pyridin-3-yl)-6-(methylsulfonyl)pyrazolo[1,5-a]pyrimidin-5-yl)-N-ethyl-8-azabicyclo[3.2.1]octane-8-carboxamide], the IC50 in assay [1] (setting [4]) and in assay [2] (setting [4]) was 100 to 1000 nM in each case.
Consider `CC(=O)c1c([C@@H]2C[C@H]3CC[C@@H](C2)N3C(=O)c2ncn[nH]2)nc2c(-c3ccc(C(C)(C)O)nc3)cnn2c1N` [Compound 7.5, 1-(5-((1R,3s,5S)-8-(1H-1,2,4-triazole-5-carbonyl)-8-azabicyclo[3.2.1]octan-3-yl)-7-amino-3-(6-(2-hydroxypropan-2-yl)pyridin-3-yl)pyrazolo[1,5-a]pyrimidin-6-yl)ethanone], for which the IC50 in assay [1] (setting [3]) and in assay [2] (setting [3]) was 1 to 100 nM in each case.
As to `COc1cc(F)c(-c2ccc(-c3cnn4c(N)c(C5CC5)c([C@@H]5C[C@H]6CC[C@@H](C5)N6C(=O)c5nnc[nH]5)nc34)cn2)cc1F` [Compound 4.12, ((1R,3a,5S)-3-(7-amino-6-cyclopropyl-3-(6-(2,5-difluoro-4-methoxyphenyl)pyridin-3-yl)pyrazolo[1,5-a]pyrimidin-5-yl)-8-azabicyclo[3.2.1]octan-8-yl)(4H-1,2,4-triazol-3-yl)methanone], the IC50 in assay [1] (setting [3]) and in assay [2] (setting [3]) was 1 to 100 nM throughout.
Take `CC(=O)c1c([C@@H]2C[C@H]3CC[C@@H](C2)N3C(=O)c2nnc[nH]2)nc2c(-c3cnc(C(C)(C)O)c(C)c3)cnn2c1N` [Compound 7.24, 1-(5-((1R,3s,5S)-8-(4H-1,2,4-triazole-3-carbonyl)-8-azabicyclo[3.2.1]octan-3-yl)-7-amino-3-(6-(2-hydroxypropan-2-yl)-5-methylpyridin-3-yl)pyrazolo[1,5-a]pyrimidin-6-yl)ethanone]: the IC50 in assay [1] (setting [3]) and in assay [2] (setting [3]) was 1 to 100 nM in each case.
In the case of `CS(=O)(=O)c1c([C@@H]2C[C@H]3CC[C@@H](C2)N3C(=O)CO)nc2c(-c3ccc(C4(O)COC4)nc3)cnn2c1N` [Compound 7.49, 1-((1R,3s,5S)-3-(7-amino-3-(6-(3-hydroxyoxetan-3-yl)pyridin-3-yl)-6-(methylsulfonyl)pyrazolo [1,5-a]pyrimidin-5-yl)-8-azabicyclo[3.2.1]octan-8-yl)-2-hydroxyethanone], the IC50 in assay [1] (setting [5]) and in assay [2] (setting [5]) was 1000 to 10000 nM throughout.
In the case of `CS(=O)(=O)c1c([C@@H]2C[C@H]3CC[C@@H](C2)N3C(=O)c2cn[nH]c2)nc2c(-c3ccc(-c4ccccc4)nc3)cnn2c1N` [Compound 3.83, ((1R,3s,5S)-3-(7-amino-6-(methylsulfonyl)-3-(6-phenylpyridin-3-yl)pyrazolo[1,5-a]pyrimidin-5-yl)-8-azabicyclo[3.2.1]octan-8-yl)(1H-pyrazol-4-yl)methanone], the IC50 in assay [1] (setting [4]) and in assay [2] (setting [4]) was 1 to 100 nM each time.
In the case of `CS(=O)(=O)c1c([C@H]2CC3CC[C@H](C2)N3C(=O)c2cc[nH]n2)nc2c(-c3ccc(C(O)C(F)(F)F)nc3)cnn2c1N` (stereo partly drawn) [Compound 7.69, ((1R,3s,5S)-3-(7-amino-6-(methylsulfonyl)-3-(6-(2,2,2-trifluoro-1-hydroxyethyl)pyridin-3-yl)pyrazolo[1,5-a]pyrimidin-5-yl)-8-azabicyclo[3.2.1]octan-8-yl)(1H-pyrazol-3-yl)methanone], the IC50 in assay [1] (Homo sapiens, PC-3, PC3 cells) lay within 1000 to 10000 nM; in assay [2] (Homo sapiens, PC-3, PC3 cells), 1000 to 10000 nM.
As to `CCc1c([C@@H]2C[C@H]3CC[C@@H](C2)N3C(=O)c2nnc[nH]2)nc2c(-c3ccc(-c4ccccc4)nc3)cnn2c1N` [Compound 5.8, ((1R,3s,5S)-3-(7-amino-6-ethyl-3-(6-phenylpyridin-3-yl)pyrazolo[1,5-a]pyrimidin-5-yl)-8-azabicyclo[3.2.1]octan-8-yl)(4H-1,2,4-triazol-3-yl)methanone], the IC50 in assay [1] (setting [3]) and in assay [2] (setting [3]) was 1 to 100 nM in each case.
Take `Nc1c(C2CC2)c([C@@H]2C[C@H]3CC[C@@H](C2)N3C(=O)c2nnc[nH]2)nc2c(C#Cc3cccnc3)cnn12` [Compound 8.62, ((1R,3s,5S)-3-(7-amino-6-cyclopropyl-3-(pyridin-3-ylethynyl)pyrazolo[1,5-a]pyrimidin-5-yl)-8-azabicyclo[3.2.1]octan-8-yl)(4H-1,2,4-triazol-3-yl)methanone]: the IC50 in assay [1] (Homo sapiens, PC-3, PC3 cells) was in the range of 1000 to 10000 nM; in assay [2] (Homo sapiens, PC-3, PC3 cells), 1000 to 10000 nM.
Consider `COCc1c([C@@H]2C[C@H]3CC[C@@H](C2)N3C(=O)c2cc(N)n[nH]2)nc2c(-c3ccc(-c4ccccc4)nc3)cnn2c1N` [Compound 5.5, (3-amino-1H-pyrazol-5-yl)((1R,3s,5S)-3-(7-amino-6-(methoxymethyl)-3-(6-phenylpyridin-3-yl)pyrazolo[1,5-a]pyrimidin-5-yl)-8-azabicyclo[3.2.1]octan-8-yl)methanone], for which the IC50 in assay [1] (setting [3]) was in the range of 100 to 1000 nM; in assay [2] (setting [3]) it was 1000 to 10000 nM.
Regarding `Nc1n[nH]cc1C(=O)N1[C@@H]2CC[C@H]1C[C@H](c1nc3c(-c4ccc(-c5ccccc5)nc4)cnn3c(N)c1C1CC1)C2` [Compound 4.30, (3-amino-1H-pyrazol-4-yl)((1R,3s,5S)-3-(7-amino-6-cyclopropyl-3-(6-phenylpyridin-3-yl)pyrazolo[1,5-a]pyrimidin-5-yl)-8-azabicyclo[3.2.1]octan-8-yl)methanone], the values for the IC50 in assay [1] (setting [3]) and in assay [2] (setting [3]) were 1 to 100 nM and 100 to 1000 nM, respectively.
As for `CS(=O)(=O)c1c([C@@H]2C[C@H]3CC[C@@H](C2)N3C(=O)c2ccc(O)cn2)nc2c(-c3ccc(-c4ccccc4)nc3)cnn2c1N` [Compound 3.16, ((1R,3s,5S)-3-(7-amino-6-(methylsulfonyl)-3-(6-phenylpyridin-3-yl)pyrazolo[1,5-a]pyrimidin-5-yl)-8-azabicyclo[3.2.1]octan-8-yl)(5-hydroxypyridin-2-yl)methanone], the IC50 was in the range of 1 to 100 nM in assay [1] (setting [4]) and 100 to 1000 nM in assay [2] (setting [4]).
The corresponding values for `CS(=O)(=O)c1c([C@@H]2C[C@H]3CC[C@@H](C2)N3C(=O)c2nnc[nH]2)nc2c(-c3cnn(-c4ccccn4)c3)cnn2c1N` [Compound 3.123, ((1R,3s,5S)-3-(7-amino-6-(methylsulfonyl)-3-(1-(pyridin-2-yl)-1H-pyrazol-4-yl)pyrazolo[1,5-a]pyrimidin-5-yl)-8-azabicyclo[3.2.1]octan-8-yl)(4H-1,2,4-triazol-3-yl)methanone] are 100 to 1000 nM and 100 to 1000 nM.
Take `NC(=O)c1c([C@@H]2C[C@H]3CC[C@@H](C2)N3C(=O)c2nc[nH]n2)nc2c(-c3ccc(-c4ccccc4)nc3)cnn2c1N` [Compound 8.40]: the IC50 in assay [1] (Homo sapiens, PC-3, PC3 cells) fell in the range of 1 to 100 nM; in assay [2] (Homo sapiens, PC-3, PC3 cells) it was 1 to 100 nM.
As to `Cc1n[nH]c(C(=O)N2[C@@H]3CC[C@H]2C[C@H](c2nc4c(-c5ccc(C6(O)CCC6)nc5)cnn4c(N)c2S(C)(=O)=O)C3)n1` [Compound 7.29, ((1R,3s,5S)-3-(7-amino-3-(6-(1-hydroxycyclobutyl)pyridin-3-yl)-6-(methylsulfonyl)pyrazolo[1,5-a]pyrimidin-5-yl)-8-azabicyclo[3.2.1]octan-8-yl)(3-methyl-1H-1,2,4-triazol-5-yl)methanone], the IC50 lay in the range of 100 to 1000 nM in assay [1] (Table 7-2, PC3 cells) and 100 to 1000 nM in assay [2] (Table 7-2, PC3 cells).

Source of the values: patent US9227971B2, “Pyrazolo[1,5-a]pyrimidine compounds as mTOR inhibitors” (Merck Sharp & Dohme Corp., priority 2010, dated 2016).
